From patent US8937089B2, “Synergistic mixtures of anthranilamide invertebrate pest control agents” (priority 2004, dated 2015)

What was measured:
Assay in all cases: whole plant or invertebrate
Format in all cases: in vivo
[1] = tested on: potato leafhopper (Empoasca fabae Harris)
Protocol: (§1) Test compounds were formulated using a solution containing 10% acetone, 90% water and 300 ppm X-77® Spreader Lo-Foam Formula non-ionic surfactant containing alkylarylpolyoxyethylene, free fatty acids, glycols and 2-propanol (Loveland Industries, Inc.) to provide the desired concentration in ppm. Formulated test solutions were then applied in 1 mL volumes through a SUJ2 atomizer nozzle with 1/8 JJ custom body (Spraying Systems Co.) positioned 1.27 cm (0.5 inches) above the top of each test unit.
[…] White sand was added to the top of the soil, and one of the primary leaves was excised prior to application. Test compounds were formulated and sprayed with 3 replications as described for Test A. After spraying, the test units were allowed to dry for 1 hour before they were infested with 5 potato leafhoppers (18- to 21-day-old adults). A black, screened cap was placed on the top of each container. The test units were held for 6 days in a growth chamber at 19-21° C. and 50-70% relative humidity.

[2] = tested on: silverleaf whitefly (Bemisia argentifolii Bellows and Perring); conditions: Bemisia argentifolii, in Gossypium hirsutum, Table 2B, read-out: % mortality (obs); for mortality at 500 ppm: rate 500 ppm; for mortality at 1000 ppm: rate 1000 ppm
Source text: For evaluating control of silverleaf whitefly (Bemisia argentifolii Bellows and Perring) through contact and/or systemic means, each test unit consisted of a small open container with a 12- to 14-day-old cotton plant inside. This was pre-infested by placing test units into cages infested with adult whiteflies so that oviposition on the cotton leaves could occur. The adults were removed from the plants with an air-blast nozzle, and the test units were capped. The test units were then stored 2 to 3 days before spraying.
as §1
The results for all experimental compositions in this test were replicated three times. After spraying of the formulated test composition, each test unit was allowed to dry for 1 hour and the cap removed. The test units were held for 13 days in a growth chamber at 28° C. and 50-70% relative humidity.

[3] = tested on: cotton melon aphid (Aphis gossypii Glover); conditions: for mortality at 1000 ppm: rate 1000 ppm
Protocol: as §1
(§2) For evaluating control of cotton melon aphid (Aphis gossypii Glover) through contact and/or systemic means, each test unit consisted of a small open container with a 6- to 7-day-old cotton plant inside. This was pre-infested by placing on a leaf of the test plant 30 to 40 aphids on a piece of leaf excised from a culture plant (cut-leaf method). The larvae moved onto the test plant as the leaf piece desiccated. After pre-infestation, the soil of the test unit was covered with a layer of sand.
(§3) Test compounds were formulated and sprayed as described for Test A. The applications were replicated three times. After spraying of the formulated test compounds, each test unit was allowed to dry for 1 hour and then a black, screened cap was placed on top. The test units were held for 6 days in a growth chamber at 19-21° C. and 50-70% relative humidity.

[4] = tested on: green peach aphid (Myzus persicae Sulzer); conditions: Green Peach Aphid; for mortality at 10 ppm: rate 10 ppm; for mortality at 100 ppm: rate 100 ppm; for mortality at 1000 ppm: rate 1000 ppm
Protocol: as §1
as §2, with “green peach” for “cotton melon”, “(Myzus persicae Sulzer)” for “(Aphis gossypii Glover)”, “12-” for “6-”, “15-day-old radish” for “7-day-old cotton”
as §3, with “described in” for “described for”, “Test A,” for “Test A. The applications were”, “test compound,” for “test compounds,”

[5] = tested on: western flower thrip (Frankliniella occidentalis Pergande)
Protocol: as §1
For evaluating control of the western flower thrip (Frankliniella occidentalis Pergande) through contact and/or systemic means, each test unit consisted of a small open container with a 5- to 7-day-old bean (var. Soleil) plant inside.
Test solutions were formulated and sprayed with 3 replications as described for Test A. After spraying, the test units were allowed to dry for 1 hour, 22 to 27 adult thrips were added to each unit and then a black, screened cap was placed on top. The test units were held for 7 days at 25° C. and 45-55% relative humidity.

[6] = tested on: corn planthopper (Peregrines maidis)
Protocol: as §1
For evaluating control of corn planthopper (Peregrines maidis) through contact and/or systemic means, each test unit consisted of a small open cylindrical container with a 3- to 4-day-old corn (maize) plant (spike) inside. White sand was added to the top of the soil prior to application. Test compounds were formulated and sprayed with 3 replications as described for Test A. After spraying, the test units were allowed to dry for 1 hour before they were post-infested with 10 to 20 corn planthoppers (18- to 20-day-old nymphs) by sprinkling them onto the sand with a salt shaker. A black, screened cap was placed on the top of each container. The test units were held for 6 days in a growth chamber at 19-21° C. and 50-70% relative humidity.

[7] = Aphis gossypii, read-out: % mortality (obs)
[8] = Myzus persicae, in Raphanus sativus, read-out: % mortality (obs)
[9] = Empoasca fabae, rate 10 ppm, alone, read-out: % mortality (obs)
[10] = Empoasca fabae, rate 100 ppm, alone, read-out: % mortality (obs)
[11] = Empoasca fabae, rate 1000 ppm, alone, read-out: % mortality (obs)
[12] = Frankliniella occidentalis, 168 h, rate 10 ppm, single compound, spray, 7 days, read-out: % mortality (obs)
[13] = Frankliniella occidentalis, 168 h, rate 100 ppm, single compound, spray, 7 days, read-out: % mortality (obs)
[14] = Frankliniella occidentalis, 168 h, rate 1000 ppm, single compound, spray, 7 days, read-out: % mortality (obs)
[15] = Corn Plant Hopper, rate 100 ppm, read-out: % mortality (obs)
[16] = Corn Plant Hopper, rate 1000 ppm, read-out: % mortality (obs)
[17] = rate 100 ppm, single compound, spray, 7 days

COC(C)(C)CCC[C@H](C)C/C=C/C(C)=C/C(=O)OC(C)C (racemic) [Methoprene]
% mortality (obs) ([1]; in vivo): 0%

CC(C)N1C(=O)N(c2ccccc2)CS/C1=N\C(C)(C)C [Buprofezin]
mortality at 300 ppm ([2]; rate 300 ppm): 75%
mortality at 500 ppm [2]: 65%
mortality at 1000 ppm [2]: 96%
mortality at 10 ppm ([3]; Aphis gossypii, rate 10 ppm, read-out: % mortality (obs)): 34%
mortality at 100 ppm ([3]; Aphis gossypii, rate 100 ppm, read-out: % mortality (obs)): 30%
mortality at 1000 ppm [3, 7]: 36%
mortality at 10 ppm [4, 8]: 63%
mortality at 100 ppm [4, 8]: 63%
mortality at 1000 ppm [4, 8]: 54%
mortality at 10 ppm [1, 9]: 20%
mortality at 100 ppm [1, 10]: 20%
mortality at 1000 ppm [1, 11]: 0%
mortality at 10 ppm [5, 12]: 20%
mortality at 100 ppm [5, 13]: 20%
mortality at 1000 ppm [5, 14]: 30%
mortality at 10 ppm ([6]; Corn Plant Hopper, rate 10 ppm, read-out: % mortality (obs)): 96%
mortality at 100 ppm [6, 15]: 97%
mortality at 1000 ppm [6, 16]: 98%

CCOP(=S)(OCC)Oc1nc(Cl)c(Cl)cc1Cl [Chlorpyrifos]
mortality at 500 ppm [2]: 0%
mortality at 1000 ppm [2]: 0%
mortality at 2000 ppm ([2]; rate 2000 ppm): 0%
mortality at 1 ppm ([3]; Aphis gossypii, rate 1 ppm, read-out: % mortality (obs)): 26%
mortality at 5 ppm ([3]; Aphis gossypii, rate 5 ppm, read-out: % mortality (obs)): 14%
mortality at 50 ppm ([3]; Aphis gossypii, rate 50 ppm, read-out: % mortality (obs)): 13%
mortality at 10 ppm [4, 8]: 5%
mortality at 100 ppm [4, 8]: 18%
mortality at 1000 ppm [4, 8]: 9%
mortality at 10 ppm [1, 9]: 13%
mortality at 100 ppm [1, 10]: 0%
mortality at 1000 ppm [1, 11]: 7%
mortality at 10 ppm [5, 12]: 20%
mortality at 100 ppm [5, 13]: 10%
mortality at 1000 ppm [5, 14]: 10%
mortality at 0.1 ppm ([6]; Corn Plant Hopper, rate 0.1 ppm, read-out: % mortality (obs)): 46%
mortality at 0.2 ppm ([6]; Corn Plant Hopper, rate 0.2 ppm, read-out: % mortality (obs)): 24%
mortality at 0.3 ppm ([6]; Corn Plant Hopper, rate 0.3 ppm, read-out: % mortality (obs)): 19%

O=C(NC(=O)c1c(F)cccc1F)Nc1cc(Cl)c(OC(F)(F)C(F)F)c(Cl)c1 [Hexaflumuron]
mortality at 10 ppm ([2]; rate 10 ppm): 1%
mortality at 60 ppm ([2]; rate 60 ppm): 0%
mortality at 360 ppm ([2]; rate 360 ppm): 0%
mortality at 30 ppm ([3]; Aphis gossypii, rate 30 ppm, read-out: % mortality (obs)): 32%
mortality at 1000 ppm [3, 7]: 30%
mortality at 3000 ppm ([3]; Aphis gossypii, rate 3000 ppm, read-out: % mortality (obs)): 29%
mortality at 100 ppm [4, 8]: 8%
mortality at 1000 ppm [4, 8]: 6%
mortality at 3000 ppm ([4]; Myzus persicae, in Raphanus sativus, rate 3000 ppm, read-out: % mortality (obs)): 13%
mortality at 100 ppm [1, 10]: 13%
mortality at 1000 ppm [1, 11]: 13%
mortality at 3000 ppm ([1]; Empoasca fabae, rate 3000 ppm, alone, read-out: % mortality (obs)): 27%
mortality at 100 ppm [6, 15]: 6%
mortality at 1000 ppm [6, 16]: 5%
mortality at 3000 ppm ([6]; Corn Plant Hopper, rate 3000 ppm, read-out: % mortality (obs)): 4%

O=C(NC(=O)c1c(F)cccc1F)Nc1cc(Cl)c(OC(F)(F)C(F)C(F)(F)F)cc1Cl (stereo not drawn) [Lufenuron]
mortality at 0.08 ppm ([3]; Aphis gossypii, rate 0.08 ppm, read-out: % mortality (obs)): 28%
mortality at 0.4 ppm ([3]; Aphis gossypii, rate 0.4 ppm, read-out: % mortality (obs)): 39%
mortality at 2 ppm ([3]; Aphis gossypii, rate 2 ppm, read-out: % mortality (obs)): 58%
mortality at 50 ppm ([4]; Myzus persicae, in Raphanus sativus, rate 50 ppm, read-out: % mortality (obs)): 34%
mortality at 250 ppm ([4]; Myzus persicae, in Raphanus sativus, rate 250 ppm, read-out: % mortality (obs)): 15%
mortality at 1000 ppm [4, 8]: 28%
mortality at 0.08 ppm ([1]; Empoasca fabae, rate 0.08 ppm, alone, read-out: % mortality (obs)): 40%
mortality at 0.4 ppm ([1]; Empoasca fabae, rate 0.4 ppm, alone, read-out: % mortality (obs)): 53%
mortality at 2 ppm ([1]; Empoasca fabae, rate 2 ppm, alone, read-out: % mortality (obs)): 40%
mortality at 10 ppm [5, 12]: 90%
mortality at 100 ppm [5, 13]: 80%
mortality at 500 ppm ([5]; Frankliniella occidentalis, 168 h, rate 500 ppm, single compound, spray, 7 days, read-out: % mortality (obs)): 80%
mortality at 0.08 ppm ([6]; Corn Plant Hopper, rate 0.08 ppm, read-out: % mortality (obs)): 9%
mortality at 0.4 ppm ([6]; Corn Plant Hopper, rate 0.4 ppm, read-out: % mortality (obs)): 7%
mortality at 2 ppm ([6]; Corn Plant Hopper, rate 2 ppm, read-out: % mortality (obs)): 7%

Abamectin
% mortality (obs) ([3]; rate 0.08 ppm): 35%
% mortality (obs) ([3]; rate 0.4 ppm): 58%
% mortality (obs) ([3]; rate 2 ppm): 100%
% mortality (obs) ([4]; rate 0.08 ppm): 47%
% mortality (obs) ([4]; rate 0.4 ppm): 100%
% mortality (obs) ([4]; rate 2 ppm): 100%
% mortality (obs) ([1]; rate 10 ppm, alone): 47%
% mortality (obs) ([1]; rate 100 ppm, alone): 100%
% mortality (obs) ([1]; rate 1000 ppm, alone): 100%
% mortality (obs) ([5]; rate 1 ppm, single compound, spray, 7 days): 100%
% mortality (obs) ([5]; rate 10 ppm, single compound, spray, 7 days): 100%
% mortality (obs) [5, 17]: 100%
% mortality (obs) ([6]; Corn Plant Hopper, rate 1.6 ppm): 7%
% mortality (obs) ([6]; Corn Plant Hopper, rate 8 ppm): 93%
% mortality (obs) ([6]; Corn Plant Hopper, rate 40 ppm): 100%

Clothianidin
% mortality (obs) ([3]; rate 0.08 ppm): 75%
% mortality (obs) ([3]; rate 0.4 ppm): 91%
% mortality (obs) ([3]; rate 2 ppm): 99%
% mortality (obs) ([4]; rate 0.08 ppm): 100%
% mortality (obs) ([4]; rate 0.4 ppm): 100%
% mortality (obs) ([4]; rate 2 ppm): 100%
% mortality (obs) ([1]; rate 10 ppm, alone): 93%
% mortality (obs) ([1]; rate 100 ppm, alone): 100%
% mortality (obs) ([1]; rate 1000 ppm, alone): 100%
% mortality (obs) [5, 17]: 90%
% mortality (obs) ([5]; rate 500 ppm, single compound, spray, 7 days): 100%
% mortality (obs) ([5]; rate 1000 ppm, single compound, spray, 7 days): 100%
% mortality (obs) ([6]; Corn Plant Hopper, rate 10 ppm): 100%
% mortality (obs) ([6]; Corn Plant Hopper, rate 100 ppm): 100%
% mortality (obs) ([6]; Corn Plant Hopper, rate 1000 ppm): 100%

Dinotefuran
% mortality (obs) ([1]; in vivo): 7%
% mortality (obs) ([5]; in vivo): 50%
% mortality (obs) ([6]; in vivo): 5%

Lambda-cyhalothrin
% mortality (obs) ([5]; in vivo): 40%
% mortality (obs) ([6]; in vivo): 7%
